Test results from US9403832B2, “Pyrazolo[1,5-a]pyrimidine-based compounds, compositions comprising them, and methods of their use” (Lexicon Pharmaceuticals, Inc., priority 2012, dated 2016).

How the values were obtained:
AAK1 [1] = target: T1, AAK1 (Homo sapiens, UniProt Q2M2I8); assay: HEK281 cell-based assay (CBA); conditions: HEK293F cells transfected with full length human AAK1 and AP2M1; phospho-mu2 Western blot; 3 hours incubation
T1 construct: NP_055726.2
Experimental: HEK293F cells were cultured in media containing DMEM (Gibco, cat. #11965), 10% FBS (SAFC Biosciences, cat. #12103C), 1× GPS (glutamine, penicillin and streptomycin). On day one, cells were plated on a 10 cm dish so that they are ˜80% confluent at time of transfection. Roughly 12 million cells were in a 10 cm dish at time of transfection. On day two, each dish was transfected with 48 ug DNA and 144 ul Lipofectamine 2000 (Invitrogen, cat. #11668-019). The DNA was comprised of a mixture (per 10 cm dish) containing 3 ug AAK1/HA/pIRES (full length human, NCBI accession no. NP_055726.2), 45 μg Flag/AP2MI/pcDNA (full length human), and 1.5 ml OPTI-MEM. The Lipofectamine 2000 is made up of a mixture (per 10 cm dish) containing 144 μl Lipofectamine 2000 and 1.5 ml OPTI-MEM. Each mixture was transferred to individual 15 ml tubes and incubated at RT for 5 minutes, and then the two mixes were combined and incubated at RT for 20 minutes.
Growth media was then aspirated from each 10 cm plate and replaced with 10 ml of DMEM+10% FBS (no GPS). Finally, 3 ml DNA/Lipofectamine mix was added to each 10 cm dish and mix gently followed by incubate of plate overnight at 37° C. and 5% CO2.
On day three, compounds were diluted in 100% DMSO at 1000× final concentration, followed by 3-fold serial dilutions for a total of 5 concentrations tested. Four compounds were tested per 10 cm dish. One ul of each compound dilution was then pipetted into a deep-well, 96-well plate, followed by addition of 500 μl DMEM+0.5% FBS into each well for a 2× final concentration of each compound. Cells were resuspended in a 10 cm dish by simple pipetting (HEK293 cells come off the plate that easy at this point) and then transferred to a 50 ml conical tube and pelleted by centrifugation at 1000 rpm for 5 min. Cell pellets were then resuspended in 2.75 ml DMEM+0.5% FBS per 10 cm dish and 100 μl of cell suspension transferred into each well of 96-well TC plate. Finally, 100 μl of 2× compound diluted in DMEM+0.5% FBS was then added into wells containing cell suspension for a 1× final concentration. Plates were then incubated at 37° C. and 5% CO2 for 3 hours followed by transferring of cell suspensions from each well into 12-tube PCR strips. The PCR strips were spun in a tip rack at 1000 rpm for 5 minutes to pellet cells and media was then removed by pipetting without disturbing the cell pellet.
To prepare for Western Blot analysis, cell pellets were resuspend in 40 ul 1× LDS-PAGE sample buffer (Invitrogen, cat.# NP0008)+2× Halt phophatase and protease inhibitor cocktail (Thermo Scientific, cat. #1861284), followed by sonicating each with microtip sonicator set at 5 for 8-10 seconds. Five ul of 10× NuPage Sample Reducing Agent (with 50 mM DTT) was to each sample followed by heat denaturing at 70 C for 10 min on PCR machine. A total of 10 μl per sample was loaded into each lane of a 4-20% Tris-Glycine Criterion 26-well gel (Biorad, cat. #345-0034) for the phospho-mu2 blot and 10 μl per lane in a 4-12% Bis-Tris (+MES buffer) NuPAGE 26-well gel (Invitrogen, cat.# WG1403BX10) for the mu2 blot. For controls, 2 ng of phospho-mu2 or 20 ng mu2/Flag proteins were loaded in the last well of each gel. After SDS-PAGE, samples on each gel were transferred to PVDF membrane using an iBlot and membranes were blocked for one hour in TBST+5% milk, followed by wash 3× for 5-10 min with TBST. Criterion gels were probed with rabbit anti-phospho-mu2 (1:5000; a rabbit polyclonal antibody produced by New England Peptide and affinity purified at Lexicon) in TBST+5% BSA, whereas, NuPAGE gels were probed with mouse anti-Flag (1:500; Sigma, cat.# F1804) in TBST+5% milk, and these primary antibodies were incubated overnight at 4° C. on a rocker.

AAK1 [2] = target: T1, AAK1; assay: P81 filter plate assay; assay type: biochemical; conditions: full-length human AAK1, Mu2 substrate, 33P-ATP
Experimental: Compounds were serially diluted into a Labcyte LDV plate (Labcyte, cat#LP-0200) using a Mutiprobe (PerkinElmer) and Biomek FX (Beckman Coulter) so that the highest compound concentration was at 96 μM. Compounds were then pinged (75 nL per well) into a Greiner 384-well reaction plate (Greiner, #781076) using an ECHO 550 Liquid Handler (Labcyte). A total of 12 μl reaction buffer (IMAP buffer containing Tween and DTT, from Molecular Devices) was then added to each well of columns 1 and 13 for the negative controls and 12 μl of 2× AAK1 (0.2 nM full-length human protein, NCBI accession no. NP_055726.2) was added to the remaining wells. Enzyme was then pre-incubated with compound for 10 minutes at RT. Reactions were initiated upon Minitrak (PerkinElmer) addition of 12 μl substrate mix containing 2× Mu2 (0.2 μM, full length human protein), 2× cold ATP (2 μM), and 1.3 μCi of hot ^33P-ATP. […] proceeded for one hour at RT. Meanwhile, Millipore 384-well P81 filter plates (Millipore, catalog #MZPHNOW10) were placed on a plate washer (Zoom ZW, from Titertek) and pre-wet with 50 μl 1% phosphoric acid. Kinase reactions were then stopped upon addition of 24 μl of 2% phosphoric acid to each well and the Minitrak was then used to transfer 40 μl from each well into the pre-wet Millipore 384-well P81 filter plates. Reaction mixtures were incubated for 10 minutes at RT in the P81 plates, followed by washing five times with 100 μl/well of 1% phosphoric acid using the Zoom filter washer. The bottom of each filter plate was sealed followed by addition of 20 μl Microscint 40 to each well, sealing the top of the plates with Flashplate cover, and then waiting one hour until reading on the TopCount (PerkinElmer).

T1 sequence (Q2M2I8 1-863 isoform Q2M2I8-2): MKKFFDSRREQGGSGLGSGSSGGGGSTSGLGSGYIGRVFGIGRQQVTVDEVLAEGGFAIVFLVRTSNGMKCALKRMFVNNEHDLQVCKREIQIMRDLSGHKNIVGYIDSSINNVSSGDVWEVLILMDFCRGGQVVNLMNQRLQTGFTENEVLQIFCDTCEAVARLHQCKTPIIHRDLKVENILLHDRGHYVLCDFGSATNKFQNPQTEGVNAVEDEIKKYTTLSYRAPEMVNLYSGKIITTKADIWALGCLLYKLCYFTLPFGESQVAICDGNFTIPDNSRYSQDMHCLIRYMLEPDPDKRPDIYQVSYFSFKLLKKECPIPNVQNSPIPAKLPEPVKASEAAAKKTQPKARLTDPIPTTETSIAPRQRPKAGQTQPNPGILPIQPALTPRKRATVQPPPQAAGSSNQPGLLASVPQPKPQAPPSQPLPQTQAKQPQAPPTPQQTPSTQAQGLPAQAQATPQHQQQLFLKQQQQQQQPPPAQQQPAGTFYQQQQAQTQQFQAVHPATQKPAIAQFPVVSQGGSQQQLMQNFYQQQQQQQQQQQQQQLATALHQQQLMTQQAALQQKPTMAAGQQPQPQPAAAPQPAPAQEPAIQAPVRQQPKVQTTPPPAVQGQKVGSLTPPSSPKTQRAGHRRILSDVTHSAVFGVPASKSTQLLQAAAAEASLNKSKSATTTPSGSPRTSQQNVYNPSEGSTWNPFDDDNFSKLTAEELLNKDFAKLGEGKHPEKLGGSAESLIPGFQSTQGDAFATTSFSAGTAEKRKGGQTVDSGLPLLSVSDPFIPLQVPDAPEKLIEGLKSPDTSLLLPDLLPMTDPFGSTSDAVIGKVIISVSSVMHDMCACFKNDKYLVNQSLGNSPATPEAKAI

CC(C)COC(=O)N(C)CCNc1ccn2ncc(-c3ccc(C(N)=O)cc3)c2n1 [isobutyl (2-((3-(4-carbamoylphenyl)pyrazolo[1,5-a]pyrimidin-5-yl)amino)ethyl)(methyl)carbamate] was tested, and the IC50 (AAK1 [1]) was ≤ 10 nM.
CCO/C=C/c1cnn2ccc(N3CCN(C(=O)OC(C)C)CC3)nc12 [(E)-isopropyl 4-(3-(2-ethoxyvinyl)pyrazolo[1,5-a]pyrimidin-5-yl)piperazine-1-carboxylate] was tested, and the IC50 (AAK1 [2]) was ≤ 100 nM.
CCOc1ncccc1-c1cnn2ccc(N3CCN(C(=O)OC(C)C)CC3)nc12 [isopropyl 4-(3-(2-ethoxypyridin-3-yl)pyrazolo[1,5-a]pyrimidin-5-yl)piperazine-1-carboxylate] was tested, and the IC50 (AAK1 [2]) was ≤ 10 nM.
In the case of CC(C)OC(=O)N1CCN(c2ccn3ncc(-c4cccnc4N)c3n2)CC1 [isopropyl 4-(3-(2-aminopyridin-3-yl)pyrazolo[1,5-a]pyrimidin-5-yl)piperazine-1-carboxylate], the IC50 (AAK1 [2]) is reported as ≤ 100 nM.
In the case of CC(C)OC(=O)N1CCN(c2ccn3ncc(C(F)(F)F)c3n2)CC1 [isopropyl 4-(3-(trifluoromethyl)pyrazolo[1,5-a]pyrimidin-5-yl)piperazine-1-carboxylate], the IC50 (AAK1 [2]) is reported as ≤ 1000 nM.
For COc1ncccc1-c1cnn2ccc(N3CCN(C(=O)[C@H](N)CC(C)C)CC3)nc12 [(R)-2-amino-1-(4-(3-(2-methoxypyridin-3-yl)pyrazolo[1,5-a]pyrimidin-5-yl)piperazin-1-yl)-4-methylpentan-1-one], the IC50 (AAK1 [2]) was ≤ 100 nM.
In the case of COc1ccc(-c2cnn3ccc(N4CC[C@H](N(C)C(=O)OC(C)C)C4)nc23)c(OC)n1 [(S)-isopropyl (1-(3-(2,6-dimethoxypyridin-3-yl)pyrazolo[1,5-a]pyrimidin-5-yl)pyrrolidin-3-yl)(methyl)carbamate], the IC50 (AAK1 [2]) is reported as ≤ 100 nM.
With COc1nc(C)ccc1-c1cnn2ccc(N3CCN(C(=O)OC(C)C)CC3)nc12 [isopropyl 4-(3-(2-methoxy-6-methylpyridin-3-yl)pyrazolo[1,5-a]pyrimidin-5-yl)piperazine-1-carboxylate] the IC50 (AAK1 [2]) was ≤ 10 nM.
In the case of COc1cc(-c2cnn3ccc(N4CCN(C(=O)OC(C)C)CC4)nc23)ccn1 [isopropyl 4-(3-(2-methoxypyridin-4-yl)pyrazolo[1,5-a]pyrimidin-5-yl)piperazine-1-carboxylate], the IC50 (AAK1 [2]) is reported as ≤ 100 nM.
For CC(C)OC(=O)N1CCN(c2ccn3ncc(-c4cccc5nccn45)c3n2)CC1 [isopropyl 4-(3-(imidazo[1,2-a]pyridin-5-yl)pyrazolo[1,5-a]pyrimidin-5-yl)piperazine-1-carboxylate], the IC50 (AAK1 [2]) was ≤ 100 nM.
With COc1nc(C)ccc1-c1cnn2ccc(N3CCN(CC(F)(F)F)CC3)nc12 [3-(2-methoxy-6-methylpyridin-3-yl)-5-(4-(2,2,2-trifluoroethyl)piperazin-1-yl)pyrazolo[1,5-a]pyrimidine] the IC50 (AAK1 [2]) was ≤ 100 nM.
COc1ncncc1-c1cnn2ccc(N3CCN(C(=O)OC(C)C)CC3)nc12 [isopropyl 4-(3-(4-methoxypyrimidin-5-yl)pyrazolo[1,5-a]pyrimidin-5-yl)piperazine-1-carboxylate] was tested, and the IC50 (AAK1 [2]) was ≤ 100 nM.
For CC(C)C[C@H](N)C(=O)N1CCN(c2ccn3ncc(Cl)c3n2)CC1 [(S)-2-amino-1-(4-(3-chloropyrazolo[1,5-a]pyrimidin-5-yl)piperazin-1-yl)-4-methylpentan-1-one], the IC50 (AAK1 [2]) was ≤ 100 nM.
For COc1ncccc1-c1cnn2ccc(N(C)CCN(C)C(=O)OC(C)C)nc12 [isopropyl (2-((3-(2-methoxypyridin-3-yl)pyrazolo[1,5-a]pyrimidin-5-yl)(methyl)amino)ethyl)(methyl)carbamate], the IC50 (AAK1 [2]) was ≤ 100 nM.
With CC(C)OC(=O)N1CCN(c2ccn3ncc(-c4cccn5ccnc45)c3n2)CC1 [isopropyl 4-(3-(imidazo[1,2-a]pyridin-8-yl)pyrazolo[1,5-a]pyrimidin-5-yl)piperazine-1-carboxylate] the IC50 (AAK1 [2]) was ≤ 100 nM.
For COc1ncccc1-c1cnn2ccc(N3C[C@H]4C[C@@H](C3)N4C(=O)OC(C)C)nc12 [(1R,5S)-isopropyl 3-(3-(2-methoxypyridin-3-yl)pyrazolo[1,5-a]pyrimidin-5-yl)-3,6-diazabicyclo[3.1.1]heptane-6-carboxylate], the IC50 (AAK1 [2]) was ≤ 100 nM.
In the case of Cc1ccc(-c2cnn3ccc(N4CCN(C(=O)OC(C)C)CC4)nc23)c(=O)n1C [isopropyl 4-(3-(1,6-dimethyl-2-oxo-1,2-dihydropyridin-3-yl)pyrazolo[1,5-a]pyrimidin-5-yl)piperazine-1-carboxylate], the IC50 (AAK1 [2]) is reported as ≤ 10 nM.
In the case of COc1ncccc1-c1cnn2ccc(NCCOC(C)(C)C)nc12 [N-(2-(tert-butoxy)ethyl)-3-(2-methoxypyridin-3-yl)pyrazolo[1,5-a]pyrimidin-5-amine], the IC50 (AAK1 [2]) is reported as ≤ 10 nM.
For CC(C)OC(=O)N1CCN(c2ccn3ncc(-c4cccnc4F)c3n2)CC1 [isopropyl 4-(3-(2-fluoropyridin-3-yl)pyrazolo[1,5-a]pyrimidin-5-yl)piperazine-1-carboxylate], the IC50 (AAK1 [2]) was ≤ 10 nM.
In the case of COc1ncccc1-c1cnn2ccc(OCCN(C)C(=O)OC(C)C)nc12 [isopropyl (2-((3-(2-methoxypyridin-3-yl)pyrazolo[1,5-a]pyrimidin-5-yl)oxy)ethyl)(methyl)carbamate], the IC50 (AAK1 [2]) is reported as ≤ 100 nM.
CC(C)OC(=O)N1CCN(c2ccn3ncc(-c4ccnnc4)c3n2)CC1 [isopropyl 4-(3-(pyridazin-4-yl)pyrazolo[1,5-a]pyrimidin-5-yl)piperazine-1-carboxylate] was tested, and the IC50 (AAK1 [2]) was ≤ 1000 nM.
COc1cccnc1-c1cnn2ccc(N3CCN(C(=O)OC(C)C)CC3)nc12 [isopropyl 4-(3-(3-methoxypyridin-2-yl)pyrazolo[1,5-a]pyrimidin-5-yl)piperazine-1-carboxylate] was tested, and the IC50 (AAK1 [2]) was ≤ 1000 nM.
With CC(C)OC(=O)N1CCN(c2ccn3ncc(-c4cccn(C)c4=O)c3n2)CC1 [isopropyl 4-(3-(1-methyl-2-oxo-1,2-dihydropyridin-3-yl)pyrazolo[1,5-a]pyrimidin-5-yl)piperazine-1-carboxylate] the IC50 (AAK1 [2]) was ≤ 10 nM.
With COc1ncccc1-c1cnn2ccc(N3CCN(C[C@@H](N)CC(C)C)CC3)nc12 [(S)-1-(4-(3-(2-methoxypyridin-3-yl)pyrazolo[1,5-a]pyrimidin-5-yl)piperazin-1-yl)-4-methylpentan-2-amine] the IC50 (AAK1 [2]) was ≤ 100 nM.
